Source: US9062066B2, “Anti-inflammatory compound having inhibitory activity against multiple tyrosine kinases and pharmaceutical composition containing same” (KOREA INSTITUTE OF SCIENCE AND TECHNOLOGY, priority 2010, dated 2015)

Tests used:
Lyn tyrosine kinase = Lyn tyrosine kinase (Homo sapiens (Human), UniProt P07948); test: in vitro Lyn tyrosine kinase inhibition; assay type: biochemical; conditions: 1 uM compound; read-out: % inhibition against Lyn
mouse skin fibroblast = test: inhibition of migration of activated fibroblast (scratch wound); assay type: cell-based; conditions: 0.5 uM compound, 10 ng/ml TGF-β1, 24 hours, read-out: Inhibition (%) of migration of activated fibroblast
Protocol: The straight line of regular width was made using a micro pipette tip for a scratch wound on the mono-layer culture, and then the culture was exchanged to DMEM medium and incubated with 10 ng/ml of TGF-β1 in cell culture incubator of 37° C. for 24 hours. The cultured cells were fixed using formalin and stained with crystal violet. Photo-pictures were taken at 100× magnification in five location selected randomly in the scratched wound site of each stained culture dish and then the number of the cells moved into the scratched wound area was counted and averaged.

DDR1 tyrosine kinase = DDR1 tyrosine kinase (Homo sapiens (Human), UniProt Q08345); test: in vitro DDR1 tyrosine kinase inhibition (GST-fused kinase domain); assay type: biochemical; conditions: 1 uM compound; read-out: % inhibition against DDR1
DDR1 tyrosine kinase, sequence (Q08345 610-905): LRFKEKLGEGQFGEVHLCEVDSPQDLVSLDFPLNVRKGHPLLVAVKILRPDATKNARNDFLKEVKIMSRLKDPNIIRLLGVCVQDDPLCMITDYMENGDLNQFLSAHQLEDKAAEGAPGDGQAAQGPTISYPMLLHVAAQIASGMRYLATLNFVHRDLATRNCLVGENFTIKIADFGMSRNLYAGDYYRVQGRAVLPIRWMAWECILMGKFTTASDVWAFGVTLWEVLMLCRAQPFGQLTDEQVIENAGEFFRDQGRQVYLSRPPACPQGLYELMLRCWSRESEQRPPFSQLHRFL

DDR2 tyrosine kinase = DDR2 tyrosine kinase (Homo sapiens (Human), UniProt Q16832); test: in vitro DDR2 tyrosine kinase inhibition (GST-fused kinase domain); assay type: biochemical; conditions: 1 uM compound; read-out: % inhibition against DDR2
DDR2 tyrosine kinase, sequence (Q16832 563-849): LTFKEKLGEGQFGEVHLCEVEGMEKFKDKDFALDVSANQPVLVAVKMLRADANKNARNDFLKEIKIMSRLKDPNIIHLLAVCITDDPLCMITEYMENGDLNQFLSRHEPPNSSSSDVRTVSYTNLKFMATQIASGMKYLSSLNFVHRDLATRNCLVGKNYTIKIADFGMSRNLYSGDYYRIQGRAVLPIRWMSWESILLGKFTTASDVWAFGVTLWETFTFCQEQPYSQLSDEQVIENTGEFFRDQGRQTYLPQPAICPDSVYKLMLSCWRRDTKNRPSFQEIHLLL

c-Src tyrosine kinase = c-Src tyrosine kinase (Homo sapiens (Human), UniProt P12931); test: in vitro c-Src tyrosine kinase inhibition (32P-ATP, poly(D4Y)n substrate); assay type: biochemical; conditions: 1 uM compound; read-out: % inhibition against c-Src
c-Src tyrosine kinase, sequence (P12931 whole entry, looked up): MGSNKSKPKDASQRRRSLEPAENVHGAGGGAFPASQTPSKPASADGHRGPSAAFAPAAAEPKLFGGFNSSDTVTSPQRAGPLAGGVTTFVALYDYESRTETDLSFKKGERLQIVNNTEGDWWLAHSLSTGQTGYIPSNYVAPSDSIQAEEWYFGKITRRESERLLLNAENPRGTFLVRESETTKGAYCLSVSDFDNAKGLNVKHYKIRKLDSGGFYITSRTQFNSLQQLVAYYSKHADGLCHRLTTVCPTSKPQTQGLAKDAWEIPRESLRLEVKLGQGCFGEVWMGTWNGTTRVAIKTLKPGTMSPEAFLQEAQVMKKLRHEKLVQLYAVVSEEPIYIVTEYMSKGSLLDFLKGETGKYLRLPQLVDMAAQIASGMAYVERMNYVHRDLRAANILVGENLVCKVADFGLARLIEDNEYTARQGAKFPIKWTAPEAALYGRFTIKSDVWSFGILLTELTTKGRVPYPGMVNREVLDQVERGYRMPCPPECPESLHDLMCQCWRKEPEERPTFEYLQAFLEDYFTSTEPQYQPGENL

[1] = tested on: TNF-α synthesis in J744A.1 macrophages; test: inhibition of TNF-α synthesis in LPS-activated macrophages (ELISA); assay type: cell-based; conditions: Macrophage; 10 μM compound, 100 ng/ml LPS, 6 hours; read-out: Inhibition (%) of TNF-α synthesis
Fgr tyrosine kinase = Fgr tyrosine kinase (Homo sapiens (Human), UniProt P09769); test: in vitro Fgr tyrosine kinase inhibition; assay type: biochemical; conditions: 1 uM compound; read-out: % inhibition against Fgr
Fgr tyrosine kinase, sequence (P09769 whole entry): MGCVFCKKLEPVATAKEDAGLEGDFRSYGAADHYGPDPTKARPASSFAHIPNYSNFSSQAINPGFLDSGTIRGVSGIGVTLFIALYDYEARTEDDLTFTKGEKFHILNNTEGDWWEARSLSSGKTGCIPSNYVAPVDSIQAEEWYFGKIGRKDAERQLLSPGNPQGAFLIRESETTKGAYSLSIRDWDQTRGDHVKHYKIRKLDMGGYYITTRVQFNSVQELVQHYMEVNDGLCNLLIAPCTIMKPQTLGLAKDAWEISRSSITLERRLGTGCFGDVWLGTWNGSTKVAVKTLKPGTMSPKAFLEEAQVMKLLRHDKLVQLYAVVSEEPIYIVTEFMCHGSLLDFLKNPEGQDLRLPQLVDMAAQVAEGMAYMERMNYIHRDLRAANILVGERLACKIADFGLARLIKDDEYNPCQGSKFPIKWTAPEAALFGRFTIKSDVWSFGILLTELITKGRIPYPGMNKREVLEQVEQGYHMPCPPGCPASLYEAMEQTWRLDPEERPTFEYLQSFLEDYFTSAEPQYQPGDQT

[2] = tested on: α-smooth muscle actin protein expression in skin fibroblast cells; test: inhibition of α-smooth muscle actin expression in fibroblast activated by type I collagen and TGF-β1 (western blotting); assay type: cell-based, Balb/C mouse; conditions: Mus musculus, 0.5 uM compound, 10 ng/ml TGF-β1, 48 hours, type I collagen, read-out: Inhibition (%) of α-smooth muscle actin increase
Excerpt: When fibroblast, […] alpha smooth muscle cells are converted to myofibroblast by activation, one of characteristic features is that α-smooth muscle actin protein expression is increased. Also myoblast cells with the increased α-smooth muscle actin expression have a character of an increased migration. These phenomena appear together with the activation of inflammatory cells and the activated myoblast-type cells are known to contribute directly to the pathology of inflammatory diseases. […] In this experiment, the expression level of alpha smooth muscle actin can be quantificated by measuring the density of α-smooth muscle actin protein band with densitometer after developing the X-ray film of chemiluminescence signal in western blotting experiment.

Hck tyrosine kinase = Hck tyrosine kinase (Homo sapiens (Human), UniProt P08631); test: in vitro Hck tyrosine kinase inhibition; assay type: biochemical; conditions: 1 uM compound; read-out: % inhibition against Hck
Hck tyrosine kinase, sequence (P08631 whole entry): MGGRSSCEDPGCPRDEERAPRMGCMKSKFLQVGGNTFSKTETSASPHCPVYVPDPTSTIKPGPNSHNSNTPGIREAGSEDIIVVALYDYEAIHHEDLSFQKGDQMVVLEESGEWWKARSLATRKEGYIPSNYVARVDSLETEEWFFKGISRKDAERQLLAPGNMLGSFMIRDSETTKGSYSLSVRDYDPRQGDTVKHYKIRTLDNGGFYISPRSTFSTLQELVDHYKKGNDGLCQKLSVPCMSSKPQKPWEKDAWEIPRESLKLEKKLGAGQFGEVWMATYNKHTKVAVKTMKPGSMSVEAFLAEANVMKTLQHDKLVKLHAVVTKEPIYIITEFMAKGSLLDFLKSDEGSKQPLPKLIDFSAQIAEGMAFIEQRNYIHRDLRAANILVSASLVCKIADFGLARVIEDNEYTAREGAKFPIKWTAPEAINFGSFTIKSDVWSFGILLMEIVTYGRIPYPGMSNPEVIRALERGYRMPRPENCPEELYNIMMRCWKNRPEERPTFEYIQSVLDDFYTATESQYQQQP

[3] = tested on: oxazolone-induced skin inflammation of Balb/C mouse ears; test: mouse skin inflammatory model induced by oxazolone (ear thickness); assay type: in vivo; conditions: 20 ul of 0.1% compound topical on ear, 36 hours after oxazolone
Protocol: The compounds of the present invention were evaluated for their effective anti-inflammatory activity using a skin inflammatory animal model of 8 weeks old Balb/C mouse ears induced by oxazolone. […] After 4 days, the thickness of ear was measured using a caliper for the thickness value of ear before the induction of inflammation. […] After 36 hours, the thickness of ear was measured for the increased thickness induced by inflammation. […] The average value was obtained in each group (n=4).

[4] = tested on: NO synthesis in J744A.1 macrophage; test: inhibition of nitric oxide (NO) synthesis in LPS-activated macrophages (Griess reagent); assay type: cell-based; conditions: 10 μM compound, LPS, 24 hours, read-out: Inhibition (%) of NO synthesis

Lyn tyrosine kinase, sequence (P07948 whole entry): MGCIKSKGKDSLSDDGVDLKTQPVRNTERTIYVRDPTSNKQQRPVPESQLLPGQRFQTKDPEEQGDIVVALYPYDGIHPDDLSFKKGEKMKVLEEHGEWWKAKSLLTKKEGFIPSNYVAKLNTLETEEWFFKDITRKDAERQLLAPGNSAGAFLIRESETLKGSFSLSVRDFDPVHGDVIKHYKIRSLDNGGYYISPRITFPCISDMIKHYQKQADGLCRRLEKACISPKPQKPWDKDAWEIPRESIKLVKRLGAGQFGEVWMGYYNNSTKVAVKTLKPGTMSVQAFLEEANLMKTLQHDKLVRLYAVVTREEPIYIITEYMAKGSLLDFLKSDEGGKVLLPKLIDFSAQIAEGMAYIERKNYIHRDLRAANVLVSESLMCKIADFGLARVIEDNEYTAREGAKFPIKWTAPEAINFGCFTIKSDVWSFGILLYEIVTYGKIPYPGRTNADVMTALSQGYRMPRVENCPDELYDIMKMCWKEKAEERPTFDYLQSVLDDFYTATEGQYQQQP

| Compound | inhibition at 1 µM (Lyn tyrosine kinase) [%] | inhibition at 1 µM (DDR1 tyrosine kinase) [%] | inhibition at 1 µM (DDR2 tyrosine kinase) [%] | inhibition at 1 µM (c-Src tyrosine kinase) [%] | inhibition at 1 µM (Fgr tyrosine kinase) [%] | inhibition at 1 µM (Hck tyrosine kinase) [%] | inhibition at 0.5 µM (mouse skin fibroblast) [%] | inhibition at 10 µM [1] [%] | inhibition at 0.5 µM [2] [%] | Inhibition (%) of increase of ear thickness [3] [%] | inhibition at 10 µM [4] [%] |
| --- | --- | --- | --- | --- | --- | --- | --- | --- | --- | --- | --- |
| CO[C@@H]1C[C@@H](CO)N(C(=O)c2cc3nccc(Nc4ccc5c(c4)cc(C)n5C(=O)NC4CC4)c3s2)C1 [Control compound 3, reference compound] | < 20 | < 20 | < 20 | < 20 | < 20 | < 20 | 11 | 19 | 8 | 22 | 21 |
| Oc1cccc(Nc2ncnc3cc(-c4ccc(CN5CCOCC5)cc4)sc23)c1 [LCB 03-0032, 3-(6-(4-(morpholinomethyl)phenyl)thieno[3,2-d]pyrimidin-4-ylamino)phenol] | > 80 | > 80 | > 80 | > 80 | > 80 | > 80 | 35 | 77 | 56 | 27 | 92 |
| Oc1cccc(Nc2ncnc3cc(-c4ccc(CN5CCNCC5)cc4)sc23)c1 [LCB 03-0033, 3-(6-(4-(piperazine-1-ylmethyl)phenyl)thieno[3,2-d]pyrimidin-4-ylamino)phenol] | > 60 | > 80 | > 80 | > 60 | > 60 | > 60 | 30 | 59 | 60 | 22 | 77 |
| Cl.Oc1cccc(Nc2ncnc3cc(-c4ccc(CN5CCCC5)cc4)sc23)c1 [LCB 03-0034, 3-(6-(4-(pyrrolidin-1-ylmethyl)phenyl)thieno[3,2-d]pyrimidin-4-ylamino)phenol] | > 80 | > 80 | > 80 | > 80 | > 80 | > 70 | 32 | 75 | 67 | 29 | 90 |
| Oc1cccc(Nc2ncnc3cc(-c4ccc(CN5CCCCC5)cc4)sc23)c1 [LCB 03-0035, 3-(6-(4-(piperidin-1-ylmethyl)phenyl)thieno[3,2-d]pyrimidin-4-ylamino)phenol] | > 80 | > 80 | > 80 | > 80 | > 80 | > 80 | 31 | 65 | 55 | 31 | 91 |
| CN1CCN(Cc2ccc(-c3cc4ncnc(Nc5cccc(O)c5)c4s3)cc2)CC1 [LCB 03-0036, 3-(6-(4-((4-methylpiperazin-1-yl)methyl)phenyl)thieno[3,2-d]pyrimidin-4-ylamino)phenol] | > 80 | > 80 | > 80 | > 80 | > 80 | > 80 | 39 | 61 | 63 | 28 | 81 |
| CCN(CC)Cc1ccc(-c2cc3ncnc(Nc4cccc(O)c4)c3s2)cc1 [LCB 03-0037] | > 80 | > 80 | > 80 | > 80 | > 70 | > 80 | 37 | 73 | 55 | 33 | 93 |
| Oc1cccc(Nc2ncnc3cc(-c4ccc(CNC5CC5)cc4)sc23)c1 [LCB 03-0040] | > 80 | > 80 | > 80 | > 80 | > 80 | > 80 | 43 | 84 | 55 | 31 | 93 |

Continued, in another order:

| inhibition at 1 µM (Lyn tyrosine kinase) [%] | inhibition at 1 µM (DDR1 tyrosine kinase) [%] | inhibition at 1 µM (DDR2 tyrosine kinase) [%] | inhibition at 1 µM (c-Src tyrosine kinase) [%] | inhibition at 1 µM (Fgr tyrosine kinase) [%] | inhibition at 1 µM (Hck tyrosine kinase) [%] | Compound | inhibition at 0.5 µM (mouse skin fibroblast) [%] | inhibition at 10 µM [1] [%] | inhibition at 0.5 µM [2] [%] | Inhibition (%) of increase of ear thickness [3] [%] | inhibition at 10 µM [4] [%] |
| --- | --- | --- | --- | --- | --- | --- | --- | --- | --- | --- | --- |
| > 80 | > 80 | > 80 | > 80 | > 80 | > 80 | CC(C)CNCc1ccc(-c2cc3ncnc(Nc4cccc(O)c4)c3s2)cc1 [LCB 03-0041] | 39 | 87 | 66 | 29 | 91 |
| > 80 | > 80 | > 80 | > 80 | > 80 | > 80 | CCNCc1ccc(-c2cc3ncnc(Nc4cccc(O)c4)c3s2)cc1 [LCB 03-0042] | 46 | 98 | 69 | 33 | 91 |
| > 50 | > 80 | > 80 | > 50 | > 50 | > 50 | C[C@@H]1CCC[C@H](C)N1Cc1ccc(-c2cc3ncnc(Nc4cccc(O)c4)c3s2)cc1.Cl [LCB 03-0059, 3-(6-(4-(((2R,6S)-2,6-dimethylpiperidin-1-yl)methyl)phenyl)thieno[3,2-d]pyrimidin-4-ylamino)phenol] | 29 | 74 | 56 | 59 | 88 |
| > 80 | > 80 | > 80 | > 80 | > 80 | > 80 | Cl.Oc1cccc(Nc2ncnc3cc(-c4cccc(CN5CCCCC5)c4)sc23)c1 [LCB 03-0060, 3-(6-(3-(piperidin-1-ylmethyl)phenyl)thieno[3,2-d]pyrimidin-4-ylamino)phenol] | 42 | 78 | 65 | 66 | 93 |
| > 80 | > 80 | > 80 | > 80 | > 80 | > 80 | CN1CCN(Cc2cccc(-c3cc4ncnc(Nc5cccc(O)c5)c4s3)c2)CC1.Cl [LCB 03-0061, 3-(6-(3-((4-methylpiperazin-1-yl)methyl)phenyl)thieno[3,2-d]pyrimidin-4-ylamino)phenol] | 44 | 91 | 68 | 55 | 92 |
| > 80 | > 80 | > 80 | > 80 | > 80 | > 80 | Cl.Oc1cccc(Nc2ncnc3cc(-c4cccc(CN5CCCC5)c4)sc23)c1 [LCB 03-0062, 3-(6-(3-(pyrrolidin-1-ylmethyl)phenyl)thieno[3,2-d]pyrimidin-4-ylamino)phenol] | 41 | 82 | 64 | 57 | 93 |
